Source: patent US11125659B2, “Preservative solution for heme protein, and method for stabilizing heme protein” (EIKEN KAGAKU KABUSHIKI KAISHA, priority 2015, dated 2021)

Test system: hemoglobin
Test: Residual percentage of hemoglobin in buffer solution with additive after storage at 37° C., hemoglobin concentration by latex agglutination immunoassay (OC sensor DIANA)
Parameters: species or system human
Settings: for Residual percentage After 6 hours of storage / Residual percentage After 24 hours of storage: 37° C.; for effect of stabilizing hemoglobin (result in words): storage at 37° C., 6 and 24 hours, versus control sample; for residual percentages of hemoglobin after 6 hours of storage and after 24 hours of storage (result in words): stored at a high temperature of 37° C.
Procedure: A solution (pH7.0) containing 0.3 w/v % bovine serum albumin, NaOH, 0.05 mol/L phosphate buffer solution as a buffer solution, and pure water as the remainder was prepared. 1,2-EDS as an additive was added, to the solution in such an amount as to give each concentration (0.01 to 0.2 mol/L) listed in Table 1, thereby preparing a solution at each concentration. Hemolytic hemoglobin was added to 10 mL of the prepared solutions in such an amount as to give a 600 ng/mL sample.
Immediately after addition of hemoglobin, the hemoglobin concentration (concentration immediately after addition) of each sample was measured. Subsequently, each sample was stored at 37° C. With the time of adding hemoglobin designated as 0 hour of storage, hemoglobin concentration of each sample was measured after 6 hours of storage and after 24 hours of storage (concentration after 6 hours of storage and concentration after 24 hours of storage).
Hemoglobin concentration was measured using an OC sensor DIANA analyzer (Eiken Chemical Co., Ltd) and a dedicated reagent (OC-Hemodia Auto III: Eiken Chemical Co., Ltd) based on the measurement principle, a latex agglutination reaction; that is, a type of immunoassay method. Specifically, 35 μL of the sample was collected and used as a test solution, and then 60 μL of latex (latex solution sensitized with 20 vol % anti-human hemoglobin rabbit polyclonal antibody) and 300 μL of diluent (11.92 mg/mL HEPES) were added to the test solution, followed by measurement of absorbance at a wavelength of 660 nm. Based on a previously produced calibration curve, hemoglobin concentration in the test solution was determined from the thus obtained measurement value. Measurement was performed in triplicate for each sample, the mean value of the measurement results was employed as the hemoglobin concentration of each sample.
From the thus measured hemoglobin concentrations, the residual percentages of hemoglobin were found based on the following formula.
Residual percentage [%] of hemoglobin after 6 hours of storage or after 24 hours of storage=100×hemoglobin concentration [ng/mL] after 6 hours of storage or after 24 hours of storage/concentration [ng/mL] immediately after addition in control sample.
Specifically, the residual percentage of hemoglobin of each sample is a relative value with the hemoglobin concentration (immediately after addition) in a control sample designated as 100%. The control sample in this example was a phosphate buffer solution (containing no 1,2-EDS) containing bovine serum albumin and NaOH, and the concentration immediately after addition in the control sample was 583 ng/mL.
Samples were prepared in a manner similar to Example 1 except that 0.05 mol/L N-(2-hydroxyethyl)piperazine-N′-ethanesulfonic acid (hereinafter, referred to as HEPES) was used instead of a phosphate buffer solution and that 1,2-EDS was added in such an amount as to give each concentration (0.005 to 0.2 mol/L) listed in Table 2, and then hemoglobin concentrations were measured. In addition, the residual percentage of each sample was represented by a relative value with the concentration immediately after addition (576 ng/mL) in a control sample (HEPES buffer solution (containing no 1,2-EDS) containing bovine serum albumin and NaOH) designated as 100%.
Samples were prepared in a manner similar to Example 1 except that 0.05 mol/L HEPES, 0.05 mol/L piperazine-N,N′-bis(2-ethanesulfonic acid) (hereinafter, referred to as PIPES) or 0.05 mol/L 2-morpholinoethanesulfonic acid (hereinafter, referred to as MES) was used instead of a phosphate buffer solution, and that 1,2-EDS was added in such an amount as to give each concentration listed in Table 3, and then hemoglobin concentrations were measured. […]

[1] = HEPES buffer, additive 5 mM, relative to HEPES control (576 ng/mL)
[2] = HEPES buffer, additive 10 mM, relative to HEPES control (576 ng/mL)
[3] = HEPES buffer, additive 20 mM, relative to HEPES control (576 ng/mL)
[4] = HEPES buffer, additive 20 mM, relative to phosphate control (583 ng/mL)
[5] = HEPES buffer, additive 40 mM, relative to HEPES control (576 ng/mL)
[6] = HEPES buffer, additive 60 mM, relative to HEPES control (576 ng/mL)
[7] = HEPES buffer, additive 100 mM, relative to HEPES control (576 ng/mL)
[8] = HEPES buffer, additive 150 mM, relative to HEPES control (576 ng/mL)
[9] = HEPES buffer, additive 200 mM, relative to HEPES control (576 ng/mL)
[10] = MES buffer, additive 20 mM, relative to phosphate control (583 ng/mL)
[11] = PIPES buffer, additive 20 mM, relative to phosphate control (583 ng/mL)
[12] = phosphate buffer pH7.0, additive 10 mM, relative to control immediately after addition (583 ng/mL)
[13] = phosphate buffer, additive 20 mM, relative to control (583 ng/mL)
[14] = phosphate buffer, additive 40 mM, relative to control (583 ng/mL)
[15] = phosphate buffer, additive 60 mM, relative to control (583 ng/mL)
[16] = phosphate buffer, additive 100 mM, relative to control (583 ng/mL)
[17] = phosphate buffer, additive 150 mM, relative to control (583 ng/mL)
[18] = phosphate buffer, additive 200 mM, relative to control (583 ng/mL)
[19] = HEPES buffer, additive 150 mM, relative to phosphate control (548 ng/mL)
[20] = phosphate buffer, additive 50 mM, relative to phosphate control (548 ng/mL)
[21] = phosphate buffer, additive 150 mM, relative to phosphate control (548 ng/mL)

Structure (SMILES): O=S(=O)(O)CCS(=O)(=O)O [1,2-EDS, 1,2-ethanedisulfonic acid]
- Residual percentage After 6 hours of storage [1]: 64.3%
- Residual percentage After 24 hours of storage [1]: 14.0%
- Residual percentage After 6 hours of storage [2]: 65.2%
- Residual percentage After 24 hours of storage [2]: 16.6%
- Residual percentage After 6 hours of storage [3]: 67.1%
- Residual percentage After 24 hours of storage [3]: 18.1%
- Residual percentage After 6 hours of storage [4]: 67.6%
- Residual percentage After 24 hours of storage [4]: 20.2%
- Residual percentage After 6 hours of storage [5]: 68.5%
- Residual percentage After 24 hours of storage [5]: 19.7%
- Residual percentage After 6 hours of storage [6]: 71.3%
- Residual percentage After 24 hours of storage [6]: 20.8%
- Residual percentage After 6 hours of storage [7]: 72.4%
- Residual percentage After 24 hours of storage [7]: 21.6%
- Residual percentage After 6 hours of storage [8]: 72.8%
- Residual percentage After 24 hours of storage [8]: 20.4%
- Residual percentage After 6 hours of storage [9]: 73.1%
- Residual percentage After 24 hours of storage [9]: 21.8%
- Residual percentage After 6 hours of storage [10]: 65.9%
- Residual percentage After 24 hours of storage [10]: 18.7%
- Residual percentage After 6 hours of storage [11]: 63.6%
- Residual percentage After 24 hours of storage [11]: 14.3%
- Residual percentage After 6 hours of storage [12]: 52.5%
- Residual percentage After 24 hours of storage [12]: 7.5%
- Residual percentage After 6 hours of storage [13]: 56.3%
- Residual percentage After 24 hours of storage [13]: 9.0%
- Residual percentage After 6 hours of storage [14]: 61.9%
- Residual percentage After 24 hours of storage [14]: 12.8%
- Residual percentage After 6 hours of storage [15]: 59.7%
- Residual percentage After 24 hours of storage [15]: 12.3%
- Residual percentage After 6 hours of storage [16]: 65.4%
- Residual percentage After 24 hours of storage [16]: 16.6%
- Residual percentage After 6 hours of storage [17]: 71.5%
- Residual percentage After 24 hours of storage [17]: 24.3%
- Residual percentage After 6 hours of storage [18]: 46.2%
- Residual percentage After 24 hours of storage [18]: 7.9%
- effect of stabilizing hemoglobin (result in words): effect of stabilizing hemoglobin
- residual percentages of hemoglobin after 6 hours of storage and after 24 hours of storage (result in words): high levels

Structure (SMILES): O=S(=O)(O)CCCCS(=O)(=O)O [1,4-BDS, 1,4-butanedisulfonic acid]
- Residual percentage After 6 hours of storage [19]: 74.7%
- Residual percentage After 24 hours of storage [19]: 28.4%
- Residual percentage After 6 hours of storage [20]: 68.3%
- Residual percentage After 24 hours of storage [20]: 14.5%
- Residual percentage After 6 hours of storage [21]: 69.9%
- Residual percentage After 24 hours of storage [21]: 18.4%
- effect of stabilizing hemoglobin (result in words): effect of stabilizing hemoglobin
- residual percentages of hemoglobin after 6 hours of storage and after 24 hours of storage (result in words): high levels

Structure (SMILES): O=S(=O)(O)c1ccc2cc(S(=O)(=O)O)ccc2c1 [2,6-NDS, 2,6-naphthalenedisulfonic acid]
- Residual percentage After 6 hours of storage [20]: 55.7%
- Residual percentage After 24 hours of storage [20]: 11.1%
- effect of stabilizing hemoglobin (result in words): effect of stabilizing hemoglobin
- residual percentages of hemoglobin after 6 hours of storage and after 24 hours of storage (result in words): high levels

Structure (SMILES): O=S(=O)(O)c1cccc2cccc(Nc3ccccc3)c12 [ANS, 8-anilino-1-naphthalenesulfonate, reference compound]
- Residual percentage After 6 hours of storage [12]: 2.6%
- Residual percentage After 24 hours of storage [12]: 2.5%

Structure (SMILES): O=S(=O)([O-])CCS.[Na+] [MESS, sodium 2-mercaptoethanesulfonate, reference compound]
- Residual percentage After 6 hours of storage [12]: 33.4%
- Residual percentage After 24 hours of storage [12]: 3.3%

Structure (SMILES): O=S(=O)(O)CCN1CCN(CCS(=O)(=O)O)CC1 [PIPES, piperazine-N,N′-bis(2-ethanesulfonic acid)]
- Residual percentage After 6 hours of storage [20]: 58.4%
- Residual percentage After 24 hours of storage [20]: 10.4%
- effect of stabilizing hemoglobin (result in words): effect of stabilizing hemoglobin
